The results in this text go back to ChEMBL document CHEMBL1201862, “PubChem BioAssay data set” (2004).

Activity calls are given as the source filed them.

For orientation: EC50 means the concentration at which the effect is half-maximal. Broadly, the AC50 is the concentration at which the activity in the assay is half-maximal.

For assay [1], the target named is T1, Heat shock factor protein 1 (Mus musculus, UniProt P38532).
T1 sequence (P38532 whole entry): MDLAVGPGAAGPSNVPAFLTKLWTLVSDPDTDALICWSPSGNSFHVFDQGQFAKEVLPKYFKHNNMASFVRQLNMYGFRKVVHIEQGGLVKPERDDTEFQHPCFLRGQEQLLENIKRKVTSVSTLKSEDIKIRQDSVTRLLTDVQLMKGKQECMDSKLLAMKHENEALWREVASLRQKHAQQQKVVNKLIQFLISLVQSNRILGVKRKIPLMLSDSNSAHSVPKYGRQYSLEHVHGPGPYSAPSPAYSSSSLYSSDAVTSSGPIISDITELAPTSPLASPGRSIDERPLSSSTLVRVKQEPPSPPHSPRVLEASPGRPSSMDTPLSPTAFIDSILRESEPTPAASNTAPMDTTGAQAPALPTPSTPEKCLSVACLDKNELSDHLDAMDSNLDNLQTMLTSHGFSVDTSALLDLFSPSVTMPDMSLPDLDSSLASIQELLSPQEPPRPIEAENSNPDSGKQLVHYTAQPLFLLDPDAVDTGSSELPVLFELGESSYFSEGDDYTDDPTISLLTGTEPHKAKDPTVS
Nature of the assay: inhibition of MG132-induced HSE-luciferase signal, confirmation, cell-based, NIH3T3, luminescence, dose retest (AID 2382).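 Further: NIH3T3 fibroblasts with HSF1-driven luciferase reporter stressed by proteasome inhibitor MG132; luminescence from HSF1-driven luciferase expression after 8 hours of MG132 stress.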 The class given is functional.

In another assay the test system is INS1. Nature of the assay: beta cell apoptosis inhibitors, cytokine rescue, dose response, luminescence, retest (AID 449756).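 Further: cell death triggered by IL-1 beta plus TNF-alpha plus IFN-gamma mixture; protective hits raise ATP signal compared with cytokine alone wells.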 The class given is functional, cell-based. Conditions: Rattus norvegicus.
The target of another assay is Cytochrome P450 2C19 (Homo sapiens, UniProt P33261). In words: Cytochrome panel assay with activity outcomes. Panel member name: p450-cyp2c19 Compounds with AC50 equal or less than 10 uM are considered active. The class given is functional. Conditions: read-out: AC50.
A further assay deals with T2, Cytochrome P450 1A2 (Homo sapiens, UniProt P05177).
T2 sequence (P05177 whole entry): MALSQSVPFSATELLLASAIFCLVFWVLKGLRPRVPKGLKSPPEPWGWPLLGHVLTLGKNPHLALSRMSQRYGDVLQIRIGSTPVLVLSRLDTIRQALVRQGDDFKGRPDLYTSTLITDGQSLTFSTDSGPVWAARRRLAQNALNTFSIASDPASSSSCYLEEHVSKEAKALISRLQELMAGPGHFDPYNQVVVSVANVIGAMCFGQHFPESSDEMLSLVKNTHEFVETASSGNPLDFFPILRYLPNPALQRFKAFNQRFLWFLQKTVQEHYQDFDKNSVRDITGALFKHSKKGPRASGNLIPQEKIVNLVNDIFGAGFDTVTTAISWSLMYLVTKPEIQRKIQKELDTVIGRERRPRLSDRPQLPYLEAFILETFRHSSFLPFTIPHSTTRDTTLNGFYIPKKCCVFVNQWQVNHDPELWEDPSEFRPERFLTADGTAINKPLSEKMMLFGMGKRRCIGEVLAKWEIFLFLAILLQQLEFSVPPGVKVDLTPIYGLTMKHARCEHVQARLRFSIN

Assay [2] in a line: Shn3 3'UTR reporter inhibitors, dose response, cell-based, Clone20 osteoblasts, firefly luciferase, cherry-picked (AID 624132).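 Further: firefly luciferase luminescence from reporter carrying the Shn3 3'UTR in osteoblasts.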 The assay is classed as functional.

Chain of Cytochrome P450 2C19 (P33261 whole entry): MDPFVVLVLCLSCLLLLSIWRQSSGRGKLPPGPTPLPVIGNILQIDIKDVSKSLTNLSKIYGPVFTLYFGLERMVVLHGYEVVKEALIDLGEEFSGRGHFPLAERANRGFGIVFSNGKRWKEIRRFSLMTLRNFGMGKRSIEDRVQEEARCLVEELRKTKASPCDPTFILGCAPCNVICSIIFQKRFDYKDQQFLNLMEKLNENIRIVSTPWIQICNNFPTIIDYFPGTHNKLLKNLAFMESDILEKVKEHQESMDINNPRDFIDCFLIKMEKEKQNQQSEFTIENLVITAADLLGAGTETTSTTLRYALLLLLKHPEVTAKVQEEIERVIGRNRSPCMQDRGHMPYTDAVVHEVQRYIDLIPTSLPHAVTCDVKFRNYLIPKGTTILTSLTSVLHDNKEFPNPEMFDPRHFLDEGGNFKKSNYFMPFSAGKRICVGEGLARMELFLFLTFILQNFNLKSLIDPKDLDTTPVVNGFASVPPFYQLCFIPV

As to `Cc1ccc(S(=O)(=O)N2CCC(C(=O)NNC(=O)c3ccncc3)CC2)cc1`, the EC50 in assay [1] is > 195 µM (not active).

In the case of `O=C(Nc1ccc(N2C(=O)C3C4C=CC(C4)C3C2=O)cc1)Nc1nncs1` (stereo unspecified), the EC50 in assay [1] was > 195 µM (not active).

With `Cc1nc2ccccc2c2oc(C(=O)Nc3ccc(C(C)C)cc3)cc12`, the AC50 with INS1 was 18.8 µM (active).

For `O=S(=O)(c1ccc(F)c(F)c1F)N1CCN(c2ncnc3sccc23)CC1`, the AC50 with INS1 was 4.95 µM (active).

Turning to `CC(C)(C)c1cnnn1-c1ccc(/C=N/Nc2ccc([N+](=O)[O-])cc2)cc1`, in the assay on INS1, the AC50 was 4.33 µM (active).

As for `OC1(c2ccc(Br)cc2)CCN(Cc2cccc(Br)c2)CC1`, the EC50 in assay [1] is > 195 µM (not active).

Take `Cc1cc(C(=O)NNC(=S)NC(C)c2ccccc2)c2ccccc2n1` (stereo unspecified): the concentration at half-maximal activity (AC50) at Cytochrome P450 2C19 was 22.4 µM (inconclusive); at Cytochrome P450 1A2 it was 31.6 µM (inconclusive).

On to `CCOC(=O)C1CCN(C(=O)CC(C)c2ccccc2)CC1` (stereo unspecified), for which, in assay [1], the EC50 was 13.5 µM (active).

With `O=C(Nc1ccc(N2CCOCC2)cc1)c1cc(-c2ccncc2)nc2ccccc12`, in assay [1], the 50% effective concentration (EC50) is > 195 µM (not active).

As to `Fc1ccc(NC(S)=NCc2ccccc2)cc1`, the half-maximal effective concentration (EC50) in assay [1] is listed as > 195 µM (not active).

As for `CCCC(c1nnnn1Cc1ccc(OC)cc1)N1CCN(c2ccccc2)CC1` (stereo unspecified), the AC50 in assay [2] is 31.9 µM (active).

For the compound `CCSC1=NCCN1C(=O)C(C)(C)Oc1ccc(Cl)cc1`, the AC50 in the assay with INS1 is > 260 µM (inactive).

As to `CCOc1ccc(NC(=O)CCCNC(=O)Cn2cnc3sc(C)c(C)c3c2=O)cc1`, the concentration for a half-maximal effect (EC50) in assay [1] is > 195 µM (not active).

For `Cn1c(=O)c2cn(Cc3ccc(Cl)cc3)cc2n(C)c1=O`, in assay [1], the EC50 is > 195 µM (not active).

Regarding `COc1ccc(NC(=O)c2cccnc2)cc1OCC(C)C`, the EC50 in assay [1] is reported as > 195 µM (not active).

Turning to `COCCn1c(SCC(=O)c2cc(C)n(C)c2C)nc2ccccc2c1=O`, the EC50 in assay [1] is reported as > 195 µM (not active).

For the compound `Cc1cc[n+](CC(=O)Nc2cc(C(F)(F)F)ccc2Cl)cc1`, the AC50 at Cytochrome P450 2C19 is 3.98 µM (inconclusive); on Cytochrome P450 1A2, 15.8 µM (inconclusive).

For the compound `C=CCN(CC=C)Cc1c[nH]c2ccccc12`, in the assay on INS1, the AC50 was > 260 µM (inactive).

For the compound `CC1Cc2ccccc2N1C(=O)C12CCC(C)(C(=O)C1)C2(C)C` (stereo unspecified), the EC50 in assay [1] was > 195 µM (not active).

With `CC(=O)Nc1ccc(Cc2ccncc2)cc1`, in assay [1], the EC50 was > 195 µM (not active).

Turning to `COCCn1c(C(=O)N2CCCC2)cc2c1C[C@H]1CN(C(=O)c3ccccc3)[C@@](Cc3ccc(F)cc3)(C(=O)OC)[C@@H]21`, the AC50 at Cytochrome P450 2C19 was 25.1 µM (inconclusive); at Cytochrome P450 1A2, 31.6 µM (inconclusive).

For `CC(C)C[C@@H](CC#N)N1CCN(Cc2ccccc2)CCC1=O`, the EC50 in assay [1] is reported as > 195 µM (not active).

Take `COC(=O)c1ccc(CN2CCN(CCc3ccccc3)C(CCO)C2)cc1` (stereo unspecified): the EC50 in assay [1] is given as > 195 µM (not active).

Turning to `O=C(OCC1CC(c2ccccc2)=NO1)c1ccc(Cl)cc1` (stereo unspecified), the AC50 at Cytochrome P450 2C19 was 7.08 µM (inconclusive); on Cytochrome P450 1A2, 2.82 µM (inconclusive).

Turning to `CCOc1ccc(N(C)S(=O)(=O)c2ccc(C)c(C(=O)OCC(=O)c3c[nH]c4ccccc34)c2)cc1`, in the assay on INS1, the AC50 is 11.3 µM (active).

Turning to `COC(=O)c1ccc(CNC(=O)C(NC(=O)c2ccco2)C(C)C)cc1` (stereo unspecified), the EC50 in assay [1] is reported as > 195 µM (not active).

Consider `CCCC(=O)N(CCN(C(=O)CCC)c1ccccc1)c1ccccc1`, for which, in the assay on INS1, the AC50 was 183 µM (active).
